Assay results reported in US6673902B2, “Cyclin D binding factor, and uses thereof” (St. Jude Children's Research Hospital, priority 1996, dated 2004).

Legend:
[1] = system: NIH-3T3 fibroblasts; test: BrdU incorporation in transfected NIH-3T3 fibroblasts; type: cell-based, mouse; details: for % Cells BrdU Positive: Table 2, expression vector 3 μg/10 ml; for % Cells BrdU Positive in 10% FCS: nonstarved cells; for % Cells BrdU Positive in 0.1% FCS: starved cells
Protocol: BrdU is added to NIH-3T3 cells after the experimental treatment and the cells were incubated for twenty-two hours in DMEM plus 10% fetal calf serum (FCS). The cells were then stained for DMP1 expression and/or BrdU incorporation. The nucleic acids encoding the wildtype DMP1 and the deletion and point mutants had been constructed so as to express the corresponding proteins with Flag-tags. To stain for DMP1 expression, mouse monoclonal anti-Flag antibodies (12 μg/ml) [Kodak] were incubated with the cells in TBS-Ca^+ without FCS for one hour at room temperature. After washing the cells, horse anti-mouse biotinylated antibodies at a 1:500 dilution were added to the cells in TBS plus 5% FCS and incubated for 30 minutes at room temperature. After washing the cells, strefptavidin linked to Texas red [Amersham] was then added at a 1:500 dilution for 30 minutes at room temperature. To stain for BrdU incorporation, 1.5N HCl was added to the cells for ten minutes at room temperature to denature the DNA. After washing the cells, sheep anti-BrdU antibodies [Fitzgerald] at a 1:12 dilution were then added for one hour at room temperature. After washing the cells, rabbit FITC-conjugated anti-sheep antibodies [Vector] at 1:100 dilution was then incubated for 30 minutes at room temperature.
NIH-3T3 cells were placed on cover slides and transfected with the expression vectors (pFLEX-DMP1 or the corresponding vector containing the deletion or point mutants of mouse DMP1 plus or minus cyclin D or E) for fourteen hours. The cells were then washed twice and DMEM plus 10% FCS was added and the cells incubated for eight hours. Half of the cells were starved by washing twice with 0.1% FCS, and then incubated for twenty-four hours in 0.1% FCS in DMEM. The remaining cells were not starved but were incubated for twenty-four hours in DMEM plus 10% FCS without washing. BrdU was added to both groups of cells and the cells were incubated for twenty-two hours in DMEM plus 10% FCS.
The cells were then restimulated to enter the cell cycle synchronously with DMEM plus 10% FCS. At the same time, 5′-Bromo-2′ Deoxyuridine (BrdU) was added to the medium. The cells were fixed 22 hours later in methanol acetone (1:1) and stained for BrdU incorporation and DMP1 expression as described in the Materials and Methods.

[2] = system: DMP1-responsive promoter (pGL2BS2); test: Transactivation of luciferase reporter plasmid under control of a DMP1-responsive promoter in NIH-3T3 fibroblasts; type: cell-based, mouse; details: vector without insert set to 1.0
Excerpt: Coexpression of a D-type cyclin with DMP1 overrides the ability of DMP1 to transactivate a luciferase gene under the control of an artificial DMP1-responsive promoter (Table 4), as well as the ability of DMP1 to inhibit cell growth.

[3] = system: 32P-BS2 Probe; test: EMSA with 32P-BS2 probe on transfection lysates of NIH-3T3 fibroblasts; type: binding; details: EMSA, 32P-BS2 probe, lysates of transfected NIH-3T3 fibroblasts
Protocol: Double-stranded oligonucleotides containing potential DMP1 binding sites (BS1 and BS2) and mutated versions (M1-M4) (FIG. 5B) are end-labeled with ^32P using the Klenow fragment of DNA polymerase and α-^32P-dATP (6000 Ci/mmol; Dupont NEN) (8). Nuclear extracts from mouse NIH-3T3 or CTLL cells are prepared with buffer containing 0.4 M NaCl (2). Mammalian cell extracts (15 μg protein) or Sf9 lysates (corresponding to 5×10^2 infected cells) containing ˜4 ng recombinant DMP1 are mixed with 3 ng of ^32P-labeled probe (1×10^5 cpm) in 15 ul Binding buffer containing 2.5 μg of poly(dI-dC) and 2.5 μg BSA and incubated at 4° C. for 30 minutes. For competition experiments, the indicated amounts of unlabeled oligonucleotides are added to the reactions before addition of the labeled probe. In some experiments, a bacterially produced GST-Ets2 fusion protein containing the complete Ets2 DNA-binding domain (10) is used in place of Sf9 extracts containing recombinant DMP1. Protein-DNA complexes are separated on nondenaturing 4% polyacrylamide gels as described (8). Where indicated, antiserum to DMP1 together with 2.5 μg salmon testis DNA (Sigma; used to reduce nonspecific DNA binding activity caused by serum addition) is preincubated with extracts for 30 minutes at 4° C. prior to initiation of binding reactions. Immune complexes are either removed by adsorption to protein A-Sepharose beads (immunodepletion experiments) or are allowed to remain (“supershift” experiments).
A series of deletion mutants and a point mutant of DMP1, K319E, (in which the lysine at position 319 of SEQ ID NO:1 is replaced by a glutamic acid) were prepared and used to determine the DNA-binding domain of DMP1 by electrophoretic mobility shift assay (EMSA) using a ^32P labeled BS2 probe. The DNA-binding domain of DMP1 was mapped to a central region containing the three MYB repeats plus adjacent flanking sequences: a BstEII to NcoI fragment encoding amino acids 87-458 of SEQ ID NO:1 (Table 1). This region alone was necessary and sufficient for DNA binding.

[4] = additive None, labeled 22 hours
[5] = expression vector 3 μg/10 ml, pGL2BS2 8 μg/10 ml

Row | Substance | % Cells BrdU Positive [1] [%] | % Cells BrdU Positive in 10% FCS [1, 4] [%] | % Cells BrdU Positive in 10% FCS ([1]; additive cyclin D2) [%] | % Cells BrdU Positive in 10% FCS ([1]; additive cyclin E) [%] | % Cells BrdU Positive in 0.1% FCS [1, 4] [%] | % Cells BrdU Positive in 0.1% FCS ([1]; additive cyclin D2) [%] | % Cells BrdU Positive in 0.1% FCS ([1]; additive cyclin E) [%] | Luciferase Activity ([2]; Table 4, DMP1 coexpressed with the additive named as label (DMP1 row: no additive)) | Luciferase Activity [2, 5] | 32P-labeled Band [3]
1 | DMP1: murine cyclin D-associated myb-like transcription factor, 761 amino acids, SEQ ID NO:1 | 12 | 30 | 80 | 82 | 15 | 57 | 56 | 8.4 | 8.4 | Yes
2 | M3: DMP1 deletion mutant (NcoI), amino acids 1-458 of SEQ ID NO:1 | 24 |  |  |  |  |  |  |  | 2.3 | Yes
